Measured values as given in patent US20240138411A1, “METHOD OF […] OF SUGARCANE” (CORTEVA AGRISCIENCE LLC, priority 2021, published 2024).
“Also recorded” adds a separate entry of the source.

Tested on: sugarcane
Assay: Sugarcane flowering inhibition field trials, floral induction rated on UFSCar scale
Assay type: in vivo
Method: In order to explore the activity of florpyrauxifen as flowering inhibitor in sugarcane, field studies were carried out. Florpyrauxifen-benzyl was tested at rates from 2 to 20 grams active ingredient per hectare (g ai/ha) and compared to Ethrel® 720 (Bayer), the standard treatment. The flowering inhibition effect was assessed by checking the floral induction in sugarcane through the percentage scale recommended by UFSCar (Federal University of Sao Carlos, Sao Paulo, Brazil).
Four trials were carried out in sugarcane where florpyrauxifen-benzyl (Rinskor®), applied at a rate of 2 to 20 g ai/ha, was compared to ethephon (Ethrel® 720) applied at a rate of 475 g ai/ha. Control plots of untreated sugarcane were also evaluated. Rinskor® and Ethrel® 720 were diluted in water and a single application for each study (backpack sprayer) was performed delivering 50 L of spray solution per ha at the reproductive stage of sugarcane and at a maximum 150 days before harvest. The activity of florpyrauxifen-benzyl as a flowering inhibitor was measured via assessments (Scale of flowering inhibition—see chart 1) performed at 0, 14, 30, 45, 60, 75, 90, 120, 150 days after application, or up to harvest time. The assessments were measured in sugarcane stems, rating the flowering induction according to the UFSCar scale shown below. Significance of treatment effect was evaluated with F-approximate test (α=0.1) and least square means from different treatments were compared with Tukey's test.

COc1c(Cl)ccc(-c2nc(C(=O)OCc3ccccc3)c(Cl)c(N)c2F)c1F [Rinskor, florpyrauxifen-benzyl]
Frequency 1/1 (0%) (Table 3, 120 DAA, 10 g ai/ha): 72.5%
Frequency 2/1 (15%) (Table 3, 120 DAA, 10 g ai/ha): 27.5%
Frequency 3/1 (30%) (Table 3, 120 DAA, 10 g ai/ha): 0.0%
Frequency 4/1 (50%) (Table 3, 120 DAA, 10 g ai/ha): 0.0%
Frequency 4/2 (80%) (Table 3, 120 DAA, 10 g ai/ha): 0.0%
Frequency 4/3 (90%) (Table 3, 120 DAA, 10 g ai/ha): 0.0%
Frequency 4/4 (100%) (Table 3, 120 DAA, 10 g ai/ha): 0.0%
% Referring to Scale (Table 3, 120 DAA, 15 g ai/ha): 2.6%
Frequency 1/1 (0%) (Table 3, 120 DAA, 15 g ai/ha): 85.0%
Frequency 2/1 (15%) (Table 3, 120 DAA, 15 g ai/ha): 12.5%
Frequency 3/1 (30%) (Table 3, 120 DAA, 15 g ai/ha): 2.5%
Frequency 4/1 (50%) (Table 3, 120 DAA, 15 g ai/ha): 0.0%
Frequency 4/2 (80%) (Table 3, 120 DAA, 15 g ai/ha): 0.0%
Frequency 4/3 (90%) (Table 3, 120 DAA, 15 g ai/ha): 0.0%
Frequency 4/4 (100%) (Table 3, 120 DAA, 15 g ai/ha): 0.0%
% Referring to Scale (Table 3, 120 DAA, 20 g ai/ha): 3.0%
Frequency 1/1 (0%) (Table 3, 120 DAA, 20 g ai/ha): 80.0%
Frequency 2/1 (15%) (Table 3, 120 DAA, 20 g ai/ha): 20.0%
Frequency 3/1 (30%) (Table 3, 120 DAA, 20 g ai/ha): 0.0%
Frequency 4/1 (50%) (Table 3, 120 DAA, 20 g ai/ha): 0.0%
Frequency 4/2 (80%) (Table 3, 120 DAA, 20 g ai/ha): 0.0%
Frequency 4/3 (90%) (Table 3, 120 DAA, 20 g ai/ha): 0.0%
Frequency 4/4 (100%) (Table 3, 120 DAA, 20 g ai/ha): 0.0%
% Referring to Scale (Table 3, 150 DAA, 2 g ai/ha): 3.0%
Frequency 1/1 (0%) (Table 3, 150 DAA, 2 g ai/ha): 80.0%
Frequency 2/1 (15%) (Table 3, 150 DAA, 2 g ai/ha): 20.0%
Frequency 3/1 (30%) (Table 3, 150 DAA, 2 g ai/ha): 0.0%
Frequency 4/1 (50%) (Table 3, 150 DAA, 2 g ai/ha): 0.0%
Frequency 4/2 (80%) (Table 3, 150 DAA, 2 g ai/ha): 0.0%
Frequency 4/3 (90%) (Table 3, 150 DAA, 2 g ai/ha): 0.0%
Frequency 4/4 (100%) (Table 3, 150 DAA, 2 g ai/ha): 0.0%
% Referring to Scale (Table 3, 150 DAA, 5 g ai/ha): 1.9%
Frequency 1/1 (0%) (Table 3, 150 DAA, 5 g ai/ha): 87.5%
Frequency 2/1 (15%) (Table 3, 150 DAA, 5 g ai/ha): 12.5%
Frequency 3/1 (30%) (Table 3, 150 DAA, 5 g ai/ha): 0.0%
Frequency 4/1 (50%) (Table 3, 150 DAA, 5 g ai/ha): 0.0%
Frequency 4/2 (80%) (Table 3, 150 DAA, 5 g ai/ha): 0.0%
Frequency 4/3 (90%) (Table 3, 150 DAA, 5 g ai/ha): 0.0%
Frequency 4/4 (100%) (Table 3, 150 DAA, 5 g ai/ha): 0.0%
% Referring to Scale (Table 3, 150 DAA, 7 g ai/ha): 3.0%
Frequency 1/1 (0%) (Table 3, 150 DAA, 7 g ai/ha): 80.0%
Frequency 2/1 (15%) (Table 3, 150 DAA, 7 g ai/ha): 20.0%
Frequency 3/1 (30%) (Table 3, 150 DAA, 7 g ai/ha): 0.0%
Frequency 4/1 (50%) (Table 3, 150 DAA, 7 g ai/ha): 0.0%
Frequency 4/2 (80%) (Table 3, 150 DAA, 7 g ai/ha): 0.0%
Frequency 4/3 (90%) (Table 3, 150 DAA, 7 g ai/ha): 0.0%
Frequency 4/4 (100%) (Table 3, 150 DAA, 7 g ai/ha): 0.0%
% Referring to Scale (Table 3, 150 DAA, 10 g ai/ha): 0.8%
Frequency 1/1 (0%) (Table 3, 150 DAA, 10 g ai/ha): 95.0%
Frequency 2/1 (15%) (Table 3, 150 DAA, 10 g ai/ha): 5.0%
Frequency 3/1 (30%) (Table 3, 150 DAA, 10 g ai/ha): 0.0%
Frequency 4/1 (50%) (Table 3, 150 DAA, 10 g ai/ha): 0.0%
Frequency 4/2 (80%) (Table 3, 150 DAA, 10 g ai/ha): 0.0%
Frequency 4/3 (90%) (Table 3, 150 DAA, 10 g ai/ha): 0.0%
Frequency 4/4 (100%) (Table 3, 150 DAA, 10 g ai/ha): 0.0%
% Referring to Scale (Table 3, 150 DAA, 15 g ai/ha): 1.9%
Frequency 1/1 (0%) (Table 3, 150 DAA, 15 g ai/ha): 87.5%
Frequency 2/1 (15%) (Table 3, 150 DAA, 15 g ai/ha): 12.5%
Frequency 3/1 (30%) (Table 3, 150 DAA, 15 g ai/ha): 0.0%
Frequency 4/1 (50%) (Table 3, 150 DAA, 15 g ai/ha): 0.0%
Frequency 4/2 (80%) (Table 3, 150 DAA, 15 g ai/ha): 0.0%
Frequency 4/3 (90%) (Table 3, 150 DAA, 15 g ai/ha): 0.0%
Frequency 4/4 (100%) (Table 3, 150 DAA, 15 g ai/ha): 0.0%
% Referring to Scale (Table 3, 150 DAA, 20 g ai/ha): 0.0%
Frequency 1/1 (0%) (Table 3, 150 DAA, 20 g ai/ha): 100.0%
Frequency 2/1 (15%) (Table 3, 150 DAA, 20 g ai/ha): 0.0%
Frequency 3/1 (30%) (Table 3, 150 DAA, 20 g ai/ha): 0.0%
Frequency 4/1 (50%) (Table 3, 150 DAA, 20 g ai/ha): 0.0%
Frequency 4/2 (80%) (Table 3, 150 DAA, 20 g ai/ha): 0.0%
Frequency 4/3 (90%) (Table 3, 150 DAA, 20 g ai/ha): 0.0%
Frequency 4/4 (100%) (Table 3, 150 DAA, 20 g ai/ha): 0.0%
% Referring to Scale (Table 4, 90 DAA, 2 g ai/ha): 5.6%
Frequency 1/1 (0%) (Table 4, 90 DAA, 2 g ai/ha): 65.0%
Frequency 2/1 (15%) (Table 4, 90 DAA, 2 g ai/ha): 35.0%
Frequency 3/1 (30%) (Table 4, 90 DAA, 2 g ai/ha): 0.0%
Frequency 4/1 (50%) (Table 4, 90 DAA, 2 g ai/ha): 0.0%
Frequency 4/2 (80%) (Table 4, 90 DAA, 2 g ai/ha): 0.0%
Frequency 4/3 (90%) (Table 4, 90 DAA, 2 g ai/ha): 0.0%
Frequency 4/4 (100%) (Table 4, 90 DAA, 2 g ai/ha): 0.0%
% Referring to Scale (Table 4, 90 DAA, 4 g ai/ha): 1.1%
Frequency 1/1 (0%) (Table 4, 90 DAA, 4 g ai/ha): 87.5%
Frequency 2/1 (15%) (Table 4, 90 DAA, 4 g ai/ha): 12.5%
Frequency 3/1 (30%) (Table 4, 90 DAA, 4 g ai/ha): 0.0%
Frequency 4/1 (50%) (Table 4, 90 DAA, 4 g ai/ha): 0.0%
Frequency 4/2 (80%) (Table 4, 90 DAA, 4 g ai/ha): 0.0%
Frequency 4/3 (90%) (Table 4, 90 DAA, 4 g ai/ha): 0.0%
Frequency 4/4 (100%) (Table 4, 90 DAA, 4 g ai/ha): 0.0%
% Referring to Scale (Table 4, 90 DAA, 10 g ai/ha): 6.0%
Frequency 1/1 (0%) (Table 4, 90 DAA, 10 g ai/ha): 60.0%
Frequency 2/1 (15%) (Table 4, 90 DAA, 10 g ai/ha): 40.0%
Frequency 3/1 (30%) (Table 4, 90 DAA, 10 g ai/ha): 0.0%
Frequency 4/1 (50%) (Table 4, 90 DAA, 10 g ai/ha): 0.0%
Frequency 4/2 (80%) (Table 4, 90 DAA, 10 g ai/ha): 0.0%
Frequency 4/3 (90%) (Table 4, 90 DAA, 10 g ai/ha): 0.0%
Frequency 4/4 (100%) (Table 4, 90 DAA, 10 g ai/ha): 0.0%
% Referring to Scale (Table 4, 90 DAA, 15 g ai/ha): 2.6%
Frequency 1/1 (0%) (Table 4, 90 DAA, 15 g ai/ha): 82.5%
Frequency 2/1 (15%) (Table 4, 90 DAA, 15 g ai/ha): 17.5%
Frequency 3/1 (30%) (Table 4, 90 DAA, 15 g ai/ha): 0.0%
Frequency 4/1 (50%) (Table 4, 90 DAA, 15 g ai/ha): 0.0%
Frequency 4/2 (80%) (Table 4, 90 DAA, 15 g ai/ha): 0.0%
Frequency 4/3 (90%) (Table 4, 90 DAA, 15 g ai/ha): 0.0%
Frequency 4/4 (100%) (Table 4, 90 DAA, 15 g ai/ha): 0.0%
% Referring to Scale (Table 4, 90 DAA, 20 g ai/ha): 3.0%
Frequency 1/1 (0%) (Table 4, 90 DAA, 20 g ai/ha): 80.0%
Frequency 2/1 (15%) (Table 4, 90 DAA, 20 g ai/ha): 20.0%
Frequency 3/1 (30%) (Table 4, 90 DAA, 20 g ai/ha): 0.0%
Frequency 4/1 (50%) (Table 4, 90 DAA, 20 g ai/ha): 0.0%
Frequency 4/2 (80%) (Table 4, 90 DAA, 20 g ai/ha): 0.0%
Frequency 4/3 (90%) (Table 4, 90 DAA, 20 g ai/ha): 0.0%
Frequency 4/4 (100%) (Table 4, 90 DAA, 20 g ai/ha): 0.0%
flowering inhibition performance versus the standard (Ethrel 720) (Tables 1-4, 60 to 150 days after application): as well as or better than the standard treatment; also recorded: equivalent to or better than the standard
sugarcane flowering inhibition (field studies, rates from 2 to 20 g ai/ha): excellent sugarcane flowering inhibitor
